Measurements from US12286632B2, “Rationally-designed synthetic peptide shuttle agents for delivering polypeptide cargos from an extracellular space to the cytosol and/or nucleus of a target eukaryotic cell, uses thereof, methods and kits relating to same” (Feldan Bio Inc., priority 2016, dated 2025).

Experiments:
Jurkat cells = assay: GFP-NLS transduction in different adherent and suspension cells (flow cytometry, Pos cells % and viability %); format: cell-based, Human; settings: Protocol C, 5 μM shuttle, 5 μM GFP-NLS, 15 seconds
Experimental: (§1) The ability of the shuttle agent His-CM18-PTD4 to deliver GFP-NLS to the nuclei of different adherent and suspension cells using Protocols B (adherent cells) or C (suspension cells) as described in Example 9.1 was examined. The cell lines tested included: HeLa, Balb3T3, HEK 293T, CHO, NIH3T3, Myoblasts, Jurkat, THP-1, CA46, and HT2 cells, which were cultured as described in Example 1. GFP-NLS (5 μM; see Example 5.1) was co-incubated with 35 μM of His-CM18-PTD4 and exposed to adherent cells for 10 seconds (Protocol B), or was co-incubated with 5 μM of His-CM18-PTD4 and exposed to suspension cells for 15 seconds (Protocol C). […] “Pos cells (%)” is the mean percentages of all cells that emanate a GFP signal.

HeLa cells = assay: Plasmid DNA (pEGFP-C1) transfection by peptides (% cells with GFP signal, cell viability); settings: DNA transfection in HeLa cells using peptides; pEGFP-C1 plasmid
in vitro = settings: human, HeLa cells
CHO cells = assay: GFP-NLS transduction in different adherent and suspension cells (flow cytometry, Pos cells % and viability %); format: cell-based, Chinese hamster; settings: Protocol B, 35 μM shuttle, 5 μM GFP-NLS, 10 seconds
Experimental: The media in wells was removed, cells were washed once with PBS previously warmed at 37° C., and the shuttle agent/cargo mixture was then added to cover all cells for the desired length of time. The shuttle agent/cargo mixture in wells was removed, the cells were washed once with PBS, and fresh complete medium was added. Before analysis, the cells were washed once with PBS and fresh complete medium was added.
as §1

CC[C@H](C)[C@H](NC(=O)[C@H](CCCCN)NC(=O)[C@H](CCCCN)NC(=O)[C@H](Cc1ccccc1)NC(=O)[C@H](CC(C)C)NC(=O)[C@H](CCCCN)NC(=O)[C@H](Cc1c[nH]c2ccccc12)NC(=O)[C@H](CCCCN)NC(=O)[C@H](Cc1c[nH]cn1)NC(=O)[C@H](Cc1c[nH]cn1)NC(=O)[C@H](Cc1c[nH]cn1)NC(=O)[C@H](Cc1c[nH]cn1)NC(=O)[C@H](Cc1c[nH]cn1)NC(=O)[C@@H](N)Cc1c[nH]cn1)C(=O)NCC(=O)N[C@@H](C)C(=O)N[C@H](C(=O)N[C@@H](CC(C)C)C(=O)N[C@@H](CCCCN)C(=O)N[C@H](C(=O)N[C@@H](CC(C)C)C(=O)N[C@H](C(=O)N[C@H](C(=O)NCC(=O)N[C@@H](Cc1ccc(O)cc1)C(=O)N[C@@H](C)C(=O)N[C@@H](CCCNC(=N)N)C(=O)N[C@@H](C)C(=O)N[C@@H](C)C(=O)N[C@@H](C)C(=O)N[C@@H](CCCNC(=N)N)C(=O)N[C@@H](CCC(N)=O)C(=O)N[C@@H](C)C(=O)N[C@@H](CCCNC(=N)N)C(=O)N[C@@H](C)C(=O)O)[C@@H](C)O)[C@@H](C)O)C(C)C)C(C)C [His-CM18-PTD4]
Cell viability (%) (±St. Dev.; n = 3) (Jurkat cells): 73.6 ± 0.7%
Mean % cells with GFP signal (±St. Dev.; n = 3) (Jurkat cells): 30.7 ± 2.2%
Mean % cells with GFP signal (±St. Dev.; n = 3) (HeLa cells): 0.04 ± 0.01%
viability (in vitro): 63.2 ± 4.07%
Cell viability (%) (±St. Dev.; n = 3) (CHO cells): 92.8 ± 0.1%
Mean % cells with GFP signal (±St. Dev.; n = 3) (CHO cells): 53.7 ± 4.6%
